Measurements: patent US8748415B2 (priority 2011, dated 2014)

System: recombinant NL4-3 virus (Renilla luciferase in nef, Gag P373S)
Experiment: HIV cell culture assay (luciferase activity in MT-2 cells infected with NLRluc recombinant virus)
Type: cell-based
Conditions: NL43, MT-2 cells infected 4-5 days with NLRluc recombinant virus
Procedure, shortened: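 MT-2 cells in RPMI/10% FBS were infected with recombinant NL4-3 (NLRluc), produced by 293T transfection and titered in MT-2 by luciferase. Serial inhibitor dilutions were present throughout a 4–5 day infection. Antiviral activity was quantified as Renilla luciferase signal via a modified Dual Luciferase read.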

Structure (SMILES)	EC50 (class symbol) [nM]	EC50 (numeric value) [nM]
C=C(C)[C@@H]1CC[C@]2(CNC(=O)CCN(C)C)CC[C@]3(C)[C@H](CC[C@@H]4[C@@]5(C)CC=C(c6ccc(C(=O)O)cc6)C(C)(C)[C@@H]5CC[C@]43C)[C@@H]12 [Example 142, 4-((1R,3aS,5aR,5bR,7aR,11aS,11bR,13aR,13bR)-3a-((3-(dimethylamino)propanamido)methyl)-5a,5b,8,8,11a-pentamethyl-1-(prop-1-en-2-yl)-2,3,3a,4,5,5a,5b,6,7,7a,8,11,11a,11b,12,13,13a,13b-octadecahydro-1H-cyclopenta[a]chrysen-9-yl)benzoic acid]	< 100	
C=C(C)[C@@H]1CC[C@]2(CNCCC(=O)NC(C)(CO)CO)CC[C@]3(C)[C@H](CC[C@@H]4[C@@]5(C)CC=C(c6ccc(C(=O)O)cc6)C(C)(C)[C@@H]5CC[C@]43C)[C@@H]12 [Example 129, 4-((1R,3aS,5aR,5bR,7aR,11aS,11bR,13aR,13bR)-3a-((3-(1,3-dihydroxy-2-methylpropan-2-ylamino)-3-oxopropylamino)methyl)-5a,5b,8,8,11a-pentamethyl-1-(prop-1-en-2-yl)-2,3,3a,4,5,5a,5b,6,7,7a,8,11,11a,11b,12,13,13a,13b-octadecahydro-1H-cyclopenta[a]chrysen-9-yl)benzoic acid]	< 100	
C=C(C)[C@@H]1CC[C@]2(CNC3(C(=O)N4CCS(=O)(=O)CC4)CC3)CC[C@]3(C)[C@H](CC[C@@H]4[C@@]5(C)CC=C(c6ccc(C(=O)O)cc6)C(C)(C)[C@@H]5CC[C@]43C)[C@@H]12 [Example 116, 4-((1R,3aS,5aR,5bR,7aR,11aS,11bR,13aR,13bR)-3a-(((1-((1,1-dioxido-4-thiomorpholinyl)carbonyl)cyclopropyl)amino)methyl)-1-isopropenyl-5a,5b,8,8,11a-pentamethyl-2,3,3a,4,5,5a,5b,6,7,7a,8,11,11a,11b,12,13,13a,13b-octadecahydro-1H-cyclopenta[a]chrysen-9-yl)benzoic acid]	< 100	
C=C(C)[C@@H]1CC[C@]2(CNC(=O)NCC(=O)OCC)CC[C@]3(C)[C@H](CC[C@@H]4[C@@]5(C)CC=C(c6ccc(C(=O)O)cc6)C(C)(C)[C@@H]5CC[C@]43C)[C@@H]12 [Example 156, 4-((1R,3aS,5aR,5bR,7aR,11aS,11bR,13aR,13bR)-3a-((3-(2-ethoxy-2-oxoethyl)ureido)methyl)-5a,5b,8,8,11a-pentamethyl-1-(prop-1-en-2-yl)-2,3,3a,4,5,5a,5b,6,7,7a,8,11,11a,11b,12,13,13a,13b-octadecahydro-1H-cyclopenta[a]chrysen-9-yl)benzoic acid]	< 100	
C=C(C)[C@@H]1CC[C@]2(CNCCCC(=O)O)CC[C@]3(C)[C@H](CC[C@@H]4[C@@]5(C)CC=C(c6ccc(C(=O)O)cc6)C(C)(C)[C@@H]5CC[C@]43C)[C@@H]12 [Example 28, 4-((1R,3aS,5aR,5bR,7aR,11aS,11bR,13aR,13bR)-3a-((3-carboxypropylamino)methyl)-5a,5b,8,8,11a-pentamethyl-1-(prop-1-en-2-yl)-2,3,3a,4,5,5a,5b,6,7,7a,8,11,11a,11b,12,13,13a,13b-octadecahydro-1H-cyclopenta[a]chrysen-9-yl)benzoic acid]		2
C=C(C)[C@@H]1CC[C@]2(CNC(=O)NCCN3CCCC3=O)CC[C@]3(C)[C@H](CC[C@@H]4[C@@]5(C)CC=C(c6ccc(C(=O)O)cc6)C(C)(C)[C@@H]5CC[C@]43C)[C@@H]12 [Example 154, 4-((1R,3aS,5aR,5bR,7aR,11aS,11bR,13aR,13bR)-5a,5b,8,8,11a-pentamethyl-3a-((3-(2-(2-oxopyrrolidin-1-yl)ethyl)ureido)methyl)-1-(prop-1-en-2-yl)-2,3,3a,4,5,5a,5b,6,7,7a,8,11,11a,11b,12,13,13a,13b-octadecahydro-1H-cyclopenta[a]chrysen-9-yl)benzoic acid]	< 100	
C=C(C)[C@@H]1CC[C@]2(CNCCN3CCOCC3)CC[C@]3(C)[C@H](CC[C@@H]4[C@@]5(C)CC=C(c6ccc(C(=O)O)cc6)C(C)(C)[C@@H]5CC[C@]43C)[C@@H]12 [Example 63, 4-((1R,3aS,5aR,5bR,7aR,11aS,11bR,13aR,13bR)-5a,5b,8,8,11a-pentamethyl-3a-((2-morpholinoethylamino)methyl)-1-(prop-1-en-2-yl)-2,3,3a,4,5,5a,5b,6,7,7a,8,11,11a,11b,12,13,13a,13b-octadecahydro-1H-cyclopenta[a]chrysen-9-yl)benzoic acid]	< 100	
C=C(C)[C@@H]1CC[C@]2(CNCC(=O)N3CCC(F)(F)CC3)CC[C@]3(C)[C@H](CC[C@@H]4[C@@]5(C)CC=C(c6ccc(C(=O)O)cc6)C(C)(C)[C@@H]5CC[C@]43C)[C@@H]12 [Example 115, 4-((1R,3aS,5aR,5bR,7aR,11aS,11bR,13aR,13bR)-3a-((2-(4,4-difluoropiperidin-1-yl)-2-oxoethylamino)methyl)-5a,5b,8,8,11a-pentamethyl-1-(prop-1-en-2-yl)-2,3,3a,4,5,5a,5b,6,7,7a,8,11,11a,11b,12,13,13a,13b-octadecahydro-1H-cyclopenta[a]chrysen-9-yl)benzoic acid]		3
C=C(C)[C@@H]1CC[C@]2(CN3CCCC3=O)CC[C@]3(C)[C@H](CC[C@@H]4[C@@]5(C)CC=C(c6ccc(C(=O)O)cc6)C(C)(C)[C@@H]5CC[C@]43C)[C@@H]12 [Example 29]		1000
C=C(C)[C@@H]1CC[C@]2(CNCCCN3CCS(=O)(=O)CC3)CC[C@]3(C)[C@H](CC[C@@H]4[C@@]5(C)CC=C(c6ccc(C(=O)O)cc6F)C(C)(C)[C@@H]5CC[C@]43C)[C@@H]12 [Example 92, 4-((1R,3aS,5aR,5bR,7aR,11aS,11bR,13aR,13bR)-3a-(((3-(1,1-dioxido-4-thiomorpholinyl)propyl)amino)methyl)-1-isopropenyl-5a,5b,8,8,11a-pentamethyl-2,3,3a,4,5,5a,5b,6,7,7a,8,11,11a,11b,12,13,13a,13b-octadecahydro-1H-cyclopenta[a]chrysen-9-yl)-3-fluorobenzoic acid]	< 100	
C=C(C)[C@@H]1CC[C@]2(CNCCCO)CC[C@]3(C)[C@H](CC[C@@H]4[C@@]5(C)CC=C(c6ccc(C(=O)O)cc6)C(C)(C)[C@@H]5CC[C@]43C)[C@@H]12 [Example 69, 4-((1R,3aS,5aR,5bR,7aR,11aS,11bR,13aR,13bR)-3a-((3-hydroxypropylamino)methyl)-5a,5b,8,8,11a-pentamethyl-1-(prop-1-en-2-yl)-2,3,3a,4,5,5a,5b,6,7,7a,8,11,11a,11b,12,13,13a,13b-octadecahydro-1H-cyclopenta[a]chrysen-9-yl)benzoic acid]	< 100	
C=C(C)[C@@H]1CC[C@]2(CNC(=O)CCC(=O)O)CC[C@]3(C)[C@H](CC[C@@H]4[C@@]5(C)CC=C(c6ccc(C(=O)O)cc6)C(C)(C)[C@@H]5CC[C@]43C)[C@@H]12 [Example 169, 4-((1R,3aS,5aR,5bR,7aR,11aS,11bR,13aR,13bR)-3a-((3-carboxypropanamido)methyl)-5a,5b,8,8,11a-pentamethyl-1-(prop-1-en-2-yl)-2,3,3a,4,5,5a,5b,6,7,7a,8,11,11a,11b,12,13,13a,13b-octadecahydro-1H-cyclopenta[a]chrysen-9-yl)benzoic acid]	< 100	
C=C(C)[C@@H]1CC[C@]2(CNCCN(C)CCO)CC[C@]3(C)[C@H](CC[C@@H]4[C@@]5(C)CC=C(c6ccc(C(=O)O)cc6)C(C)(C)[C@@H]5CC[C@]43C)[C@@H]12 [Example 26, 4-((1R,3aS,5aR,5bR,7aR,11aS,11bR,13aR,13bR)-3a-((2-((2-hydroxyethyl)(methyl)amino)ethylamino)methyl)-5a,5b,8,8,11a-pentamethyl-1-(prop-1-en-2-yl)-2,3,3a,4,5,5a,5b,6,7,7a,8,11,11a,11b,12,13,13a,13b-octadecahydro-1H-cyclopenta[a]chrysen-9-yl)benzoic acid]	< 100	
C=C(C)[C@@H]1CC[C@]2(CNCCC(=O)N3CCn4c(nnc4C(F)(F)F)C3)CC[C@]3(C)[C@H](CC[C@@H]4[C@@]5(C)CC=C(c6ccc(C(=O)O)cc6)C(C)(C)[C@@H]5CC[C@]43C)[C@@H]12 [Example 119]	< 100	
C=C(C)[C@@H]1CC[C@]2(CN3CCOC3=O)CC[C@]3(C)[C@H](CC[C@@H]4[C@@]5(C)CC=C(c6ccc(C(=O)O)cc6)C(C)(C)[C@@H]5CC[C@]43C)[C@@H]12 [Example 182, 4-((1R,3aS,5aR,5bR,7aR,11aS,11bR,13aR,13bR)-5a,5b,8,8,11a-pentamethyl-3a-((2-oxooxazolidin-3-yl)methyl)-1-(prop-1-en-2-yl)-2,3,3a,4,5,5a,5b,6,7,7a,8,11,11a,11b,12,13,13a,13b-octadecahydro-1H-cyclopenta[a]chrysen-9-yl)benzoic acid]	< 100	
C=C(C)[C@@H]1CC[C@]2(CNCCCN3CCCC3)CC[C@]3(C)[C@H](CC[C@@H]4[C@@]5(C)CC=C(c6ccc(C(=O)O)cc6)C(C)(C)[C@@H]5CC[C@]43C)[C@@H]12 [Example 68, 4-((1R,3aS,5aR,5bR,7aR,11aS,11bR,13aR,13bR)-5a,5b,8,8,11a-pentamethyl-1-(prop-1-en-2-yl)-3a-((3-(pyrrolidin-1-yl)propylamino)methyl)-2,3,3a,4,5,5a,5b,6,7,7a,8,11,11a,11b,12,13,13a,13b-octadecahydro-1H-cyclopenta[a]chrysen-9-yl)benzoic acid]	< 100	
C=C(C)[C@@H]1CC[C@]2(CNCCN3CCCCC3)CC[C@]3(C)[C@H](CC[C@@H]4[C@@]5(C)CC=C(c6ccc(C(=O)O)cc6)C(C)(C)[C@@H]5CC[C@]43C)[C@@H]12 [Example 9, 4-((1R,3aS,5aR,5bR,7aR,11aS,11bR,13aR,13bR)-5a,5b,8,8,11a-pentamethyl-3a-((2-(piperidin-1-yl)ethylamino)methyl)-1-(prop-1-en-2-yl)-2,3,3a,4,5,5a,5b,6,7,7a,8,11,11a,11b,12,13,13a,13b-octadecahydro-1H-cyclopenta[a]chrysen-9-yl)benzoic acid]	< 100	
